What was measured:
[1] = target: T1, Adenosine receptor A2b (Homo sapiens, UniProt P29275)
T1 sequence (P29275 whole entry): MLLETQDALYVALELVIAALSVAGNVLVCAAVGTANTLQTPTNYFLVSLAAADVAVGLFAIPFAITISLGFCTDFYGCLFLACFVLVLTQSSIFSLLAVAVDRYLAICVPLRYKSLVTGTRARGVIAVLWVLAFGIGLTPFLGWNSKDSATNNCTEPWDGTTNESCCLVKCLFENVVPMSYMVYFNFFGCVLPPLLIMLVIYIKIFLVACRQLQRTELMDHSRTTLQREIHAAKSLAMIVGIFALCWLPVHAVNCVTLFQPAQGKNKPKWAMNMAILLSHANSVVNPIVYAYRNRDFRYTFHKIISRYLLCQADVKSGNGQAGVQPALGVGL
Description: Binding affinity to recombinant human adenosine A2B receptor

[2] = target: T2, Adenosine receptor A2a (Homo sapiens, UniProt P29274)
Description: Binding affinity to recombinant human adenosine A2A receptor

[3] = target: T2, Adenosine receptor A2a; assay: Displacement of [3H]ZM-241385 from recombinant human adenosine A2A receptor expressed in HeLa cells at 0.1 uM
[4] = target: T3, Adenosine receptor A2b (Homo sapiens) (UniProt P29275); assay: Displacement of [3H]DPCPX from recombinant human adenosine A2B receptor expressed in HEK293 cells at 0.1 uM; assay type: cell-based
T3 sequence (whole entry): T1 sequence (P29275 whole entry)

[5] = target: T3, Adenosine receptor A2b (Homo sapiens); assay: Displacement of [3H]DPCPX from recombinant human adenosine A2B receptor expressed in HEK293 cells at 0.01 uM

T2 sequence (P29274 whole entry): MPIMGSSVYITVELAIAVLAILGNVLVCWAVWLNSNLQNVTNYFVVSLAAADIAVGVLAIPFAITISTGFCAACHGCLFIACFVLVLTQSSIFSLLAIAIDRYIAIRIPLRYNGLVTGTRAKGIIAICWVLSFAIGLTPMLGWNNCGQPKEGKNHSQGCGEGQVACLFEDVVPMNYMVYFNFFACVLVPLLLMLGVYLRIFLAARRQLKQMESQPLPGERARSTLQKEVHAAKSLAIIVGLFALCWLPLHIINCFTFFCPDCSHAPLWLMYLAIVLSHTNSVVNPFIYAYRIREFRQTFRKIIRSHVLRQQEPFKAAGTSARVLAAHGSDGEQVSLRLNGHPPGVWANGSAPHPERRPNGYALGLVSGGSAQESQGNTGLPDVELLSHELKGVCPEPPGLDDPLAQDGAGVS

Row | SMILES | Ki [1] [nM] | Ki [2] [nM] | inhibition [3] [%] | inhibition [4] [%] | inhibition [5] [%]
1 | CCCn1c(=O)c2[nH]c(-c3cc(OCC(=O)c4ccc(Br)cc4)nn3C)nc2n(CCC)c1=O | > 1000 | 25.1 | – | – | –
2 | CCOC(=O)COc1ccc(-c2cc3c([nH]2)c(=O)n(C)c(=O)n3C)cc1OC | 1510 | 3720 | 18 | 8 | –
3 | CCCn1c(=O)c2nc(-c3cc(OCC(=O)c4ccc(C(C)=O)cc4)nn3C)[nH]c2n(CCC)c1=O | > 1000 | 87.1 | – | – | –
4 | CCCn1c(=O)c2[nH]c(-c3ccc(OCC(=O)c4ccc(I)cc4)nn3)nc2n(CCC)c1=O | > 1000 | > 1000 | – | – | –
5 | CCCn1c(=O)c2[nH]c(-c3ccc(OCC(=O)c4ccc(I)cc4)cc3)nc2n(CCC)c1=O | 5890 | 2.14 | – | – | –
6 | CCOC(=O)COc1ccc(-c2cc3c([nH]2)c(=O)n(C)c(=O)n3CCCOC)cc1 | 372 | 1860 | 5 | 22 | –
7 | CCCn1c(=O)c2[nH]c(-c3cc(OCC(=O)c4ccc(C)cc4)nn3C)nc2n(CCC)c1=O | > 1000 | 19.1 | – | – | –
8 | CCCn1c(=O)c2[nH]c(-c3ccc(OCC(=O)Nc4ccc(I)cc4)cc3)nc2n(CCC)c1=O | – | 5890 | – | – | –
9 | CCCn1c(=O)c2nc(-c3cc(OCC(=O)c4ccc(Br)cc4)n(C)n3)[nH]c2n(CCC)c1=O | > 1000 | 93.3 | – | – | –
10 | CCCn1c(=O)c2nc(-c3cc(OCC(=O)c4ccc(F)cc4)nn3C)[nH]c2n(CCC)c1=O | > 1000 | 12.6 | – | – | –
11 | CCOC(=O)COc1ccc(-c2cc3c([nH]2)c(=O)n(C)c(=O)n3C)cc1 | 288 | 1950 | 10 | 25 | –
12 | CCCn1c(=O)c2nc(-c3cc(OCC(=O)c4ccc(C(=O)OCC)cc4)nn3C)[nH]c2n(CCC)c1=O | > 1000 | 32.4 | – | – | –
13 | CCCn1c(=O)c2nc(-c3ccc(OCC(=O)c4ccc(I)cc4)cn3)[nH]c2n(CCC)c1=O | > 1000 | 11 | – | – | –
14 | COCCCn1c(=O)n(C)c(=O)c2[nH]c(-c3ccc(OCC(=O)O)cc3)cc21 | 214 | 11500 | 11 | 35 | –
15 | CCCn1c(=O)c2nc(-c3cc(OCC(=O)c4ccc(F)cc4)n(C)n3)[nH]c2n(CCC)c1=O | > 1000 | 186 | – | – | –

Now from value to compound:

Row | Ki [1] [nM] | Ki [2] [nM] | inhibition [3] [%] | inhibition [4] [%] | inhibition [5] [%] | SMILES
16 | 72.4 | 933 | 20 | 66 | – | CCn1c(=O)c2[nH]c(-c3ccc(OCC(=O)O)cc3)cc2n(CCCOC)c1=O
17 | 158 | 398 | 19 | 36 | – | CCCn1c(=O)c2[nH]c(-c3ccc(OCC(=O)O)cc3)c(Cl)c2n(CCC)c1=O
18 | 15.8 | 123 | – | – | – | CCCn1c(=O)c2[nH]c(-c3ccc(OCC(=O)O)cc3)cc2n(CCC)c1=O
19 | 123 | 4170 | 14 | 47 | – | Cn1c(=O)c2[nH]c(-c3ccc(OCC(=O)O)cc3)cc2n(C)c1=O
20 | 79.4 | 490 | 11 | 48 | – | CCCn1c(=O)c2[nH]c(-c3ccc(OCC(=O)O)cc3)c(Br)c2n(CCC)c1=O
21 | 45.7 | 776 | 15 | 51 | – | CCCn1c(=O)n(C)c(=O)c2[nH]c(-c3ccc(OCC(=O)O)cc3)cc21
22 | 14.1 | – | 44 | 81 | 27 | CCCn1c(=O)c2[nH]c(-c3ccc(OCC(=O)Nc4ccc(C)cc4)cc3)cc2n(CCC)c1=O
23 | 7.94 | 191 | – | – | – | CCCn1c(=O)c2[nH]c(-c3ccc(OCC(=O)Nc4ccc(Cl)cc4)cc3)nc2n(CCC)c1=O
24 | 66.1 | 447 | 16 | 57 | – | CCOC(=O)COc1ccc(-c2cc3c([nH]2)c(=O)n(CC)c(=O)n3CCCOC)cc1
25 | 43.7 | 1000 | 8 | 44 | – | CCCn1c(=O)c2[nH]c(-c3ccc(OC(C)C(=O)O)cc3)cc2n(CCC)c1=O (stereo not drawn)
